What was measured:
[1] = tested on: AK7 murine mesothelioma cells; type: in vivo, C57Bl/6 mice; conditions: decitabine 4 µg/g i.p. days 7 and 9
HDAC = conditions: cited from earlier work

SMILES | Anti-tumor effect by itself [1] | Fold less potent than (R)-trichostatin A (HDAC) [fold]
Nc1ncn([C@H]2C[C@H](O)[C@@H](CO)O2)c(=O)n1 [decitabine] | no anti-tumor effect | 
CC(C=CC(=O)NO)=C[C@H](C)C(=O)c1ccc(N(C)C)cc1 [(S)-isomer] |  | 70
